From patent publication US9682965B2, “Fumagillol heterocyclic compounds and methods of making and using same” (Zafgen, Inc., priority 2015, dated 2017)
Where a name gives a salt, the structure may show the parent alone.

Key:
[1] = system: Male Sprague Dawley rats on high fat diet; assay: 11 day rat DIO model (body weight, food intake, hematology, blood chemistries); type: in vivo; settings: 264 h, DIO rat, once a day for 11 days, read-out: DIO Rat 11-day weight loss vs vehicle; for inhibition in vivo at 0.3 mg/kg: 0.3 mpk sc; for inhibition in vivo at 1 mg/kg: 1.0 mpk sc
From the text: The objective of this study design is to investigate the efficacy of disclosed compounds in an 11 day rat DIO model used to screen compounds for pharmacologic efficacy on endpoints related to obesity and metabolism. Effects on body weight, food intake, hematology and blood chemistries were the primary readouts of this study design. […] Rats were fed Research Diets D12451 (45% High Fat) and provided water ad libitum. Rats were received and housed in the facility for at least two or three weeks prior to start of test article administration. On Day −4 or −3, rats were randomized into study groups based on body weight and body weights were continued to be recorded daily for the duration of the study. Daily food intake was assessed starting on Study Day −2 by weighing the hopper including the food to avoid loss of food in transfer.
Compounds were formulated into a 100% DMSO stock (at 9 mg/mL) prior to the start, and further diluted into the target working concentration using the vehicle of 10% DMSO in water. Prior to test article administration, starting on Day −3 a dosing acclimation occured with all animals receiving a subcutaneous injection of vehicle (10% DMSO) only for 3 days. Starting on Day 1, test compounds or vehicle were administered based on individual body weight, subcutaneously, once a day for 11 days. All animals were sacrificed on Day 11, approximately 2 hours following the final dosing on Day 11. After sacrifice, whole blood was collected and analyzed for hematology and blood chemistry parameters.
Compounds were tested vs. vehicle at various doses (1.0, 0.5, 0.3, 0.1, 0.03 mpk sc (mg per kg animal weight delivered subcutaneously), and the results are shown in Table 2 below.

[2] = system: Diet Induced Obese (DIO) C57BL/6 mice; assay: 10 day DIO mouse model (body weight, food intake, hematology, blood chemistry); type: in vivo; settings: 240 h; DIO mouse, 0.3 mpk sc, once a day for 10 days; read-out: DIO Mouse 10-day weight loss vs vehicle
How it was run: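 DIO C57BL/6 mice on 60% kcal fat diet received compounds subcutaneously once daily for 10 days at 1.0, 0.5, 0.3, 0.1 or 0.03 mpk, in 10% DMSO in water, after 3-day vehicle acclimation. Body weight and food intake were recorded daily. Hematology and blood chemistry were taken on Day 11, 24 h post-final dose.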

SMILES | inhibition in vivo at 0.3 mg/kg [1] [%] | inhibition in vivo at 0.3 mg/kg [2] [%] | inhibition in vivo at 1 mg/kg [1] [%]
CO[C@@H]1[C@H](OC(=O)N2CC(CCn3cccn3)C2)CC[C@]2(CO2)[C@H]1[C@@]1(C)O[C@@H]1CC=C(C)C [Example 17, (3R,4S,5S,6R)-5-methoxy-4-((2R,3R)-2-methyl-3-(3-methylbut-2-enyl)oxiran-2-yl)-1-oxaspiro[2.5]octan-6-yl 3-(2-(1H-pyrazol-1-yl)ethyl)azetidine-1-carboxylate] | 5.1 | 12.6 | 
CO[C@@H]1[C@H](OC(=O)N2CC(CCN3CCN(CC(F)F)CC3)C2)CC[C@]2(CO2)[C@H]1[C@@]1(C)O[C@@H]1CC=C(C)C [Example 34, (3R,4S,5S,6R)-5-methoxy-4-((2R,3R)-2-methyl-3-(3-methylbut-2-en-1-yl)oxiran-2-yl)-1-oxaspiro[2.5]octan-6-yl 3-(2-(4-(2,2-difluoroethyl)piperazin-1-yl)ethyl)azetidine-1-carboxylate] | 5.1 | 9.3 | 
CO[C@@H]1[C@H](OC(=O)N2CC[C@@H](CN3CCOCC3)C2)CC[C@]2(CO2)[C@H]1[C@@]1(C)O[C@@H]1CC=C(C)C [Example 37, (S)-(3R,4S,5S,6R)-5-methoxy-4-((2R,3R)-2-methyl-3-(3-methylbut-2-en-1-yl)oxiran-2-yl)-1-oxaspiro[2.5]octan-6-yl 3-(morpholinomethyl)pyrrolidine-1-carboxylate formate] | 5.3 | 11.1 | 
CCN(CC)C[C@@H]1CCN1C(=O)O[C@@H]1CC[C@]2(CO2)[C@@H]([C@@]2(C)O[C@@H]2CC=C(C)C)[C@@H]1OC [Example 40, (S)-((3R,4S,5S,6R)-5-methoxy-4-((2R,3R)-2-methyl-3-(3-methylbut-2-enyl)oxiran-2-yl)-1-oxaspiro[2.5]octan-6-yl) 2-((diethylamino)methyl)azetidine-1-carboxylate formate] | 0.08 | 6 | 4.73
CCN(CC)C[C@H]1CCN1C(=O)O[C@@H]1CC[C@]2(CO2)[C@@H]([C@@]2(C)O[C@@H]2CC=C(C)C)[C@@H]1OC [Example 43, (R)-((3R,4S,5S,6R)-5-methoxy-4-((2R,3R)-2-methyl-3-(3-methylbut-2-enyl)oxiran-2-yl)-1-oxaspiro[2.5]octan-6-yl) 2-((diethylamino)methyl)azetidine-1-carboxylate formate] | 0.35 | 2.7 | 2.9
CO[C@@H]1[C@H](OC(=O)N2CC(CCN3CCC(F)(F)C3)C2)CC[C@]2(CO2)[C@H]1[C@@]1(C)O[C@@H]1CC=C(C)C [Example 45, (3R,4S,5S,6R)-5-methoxy-4-((2R,3R)-2-methyl-3-(3-methylbut-2-enyl)oxiran-2-yl)-1-oxaspiro[2.5]octan-6-yl 3-(2-(3,3-difluoropyrrolidin-1-yl)ethyl)azetidine-1-carboxylate] | 5.2 | 16.8 | 
CCN(CC)C[C@@H]1CCCN1C(=O)O[C@@H]1CC[C@]2(CO2)[C@@H]([C@@]2(C)O[C@@H]2CC=C(C)C)[C@@H]1OC [Example 48, (S)-((3R,4S,5S,6R)-5-methoxy-4-((2R,3R)-2-methyl-3-(3-methylbut-2-enyl)oxiran-2-yl)-1-oxaspiro[2.5]octan-6-yl) 2-((diethylamino)methyl)pyrrolidine-1-carboxylate formate] | 0.65 | 7.2 | 7.88
CO[C@@H]1[C@H](OC(=O)N2CC[C@H](CCN3CCOCC3)C2)CC[C@]2(CO2)[C@H]1[C@@]1(C)O[C@@H]1CC=C(C)C [Example 54, (S)-((3R,4S,5S,6R)-5-methoxy-4-((2R,3R)-2-methyl-3-(3-methylbut-2-enyl)oxiran-2-yl)-1-oxaspiro[2.5]octan-6-yl) 3-(2-morpholinoethyl)pyrrolidine-1-carboxylate] | 7.3 | 16.4 | 
CO[C@@H]1[C@H](OC(=O)N2CC[C@@H](CCN3CCOCC3)C2)CC[C@]2(CO2)[C@H]1[C@@]1(C)O[C@@H]1CC=C(C)C [Example 55, (R)-(3R,4S,5S,6R)-5-methoxy-4-((2R,3R)-2-methyl-3-(3-methylbut-2-en-1-yl)oxiran-2-yl)-1-oxaspiro[2.5]octan-6-yl 3-(2-morpholinoethyl)pyrrolidine-1-carboxylate] | 7.5 | 12.2 | 
CCN(CC)C[C@H]1CCCN1C(=O)O[C@@H]1CC[C@]2(CO2)[C@@H]([C@@]2(C)O[C@@H]2CC=C(C)C)[C@@H]1OC [Example 60, (R)-((3R,4S,5S,6R)-5-methoxy-4-((2R,3R)-2-methyl-3-(3-methylbut-2-enyl)oxiran-2-yl)-1-oxaspiro[2.5]octan-6-yl) 2-((diethylamino)methyl)pyrrolidine-1-carboxylate formate] | 1.95 | 6.3 | 7.79
CNC(=O)OCC1CN(C(=O)O[C@@H]2CC[C@]3(CO3)[C@@H]([C@@]3(C)O[C@@H]3CC=C(C)C)[C@@H]2OC)C1 [Example 69, (3R,4S,5S,6R)-5-methoxy-4-((2R,3R)-2-methyl-3-(3-methylbut-2-enyl)oxiran-2-yl)-1-oxaspiro[2.5]octan-6-yl 3-((methylcarbamoyloxy)methyl)azetidine-1-carboxylate] | 2.1 | 12.7 | 
CO[C@@H]1[C@H](OC(=O)N2CC(OC(=O)N3CCOCC3)C2)CC[C@]2(CO2)[C@H]1[C@@]1(C)O[C@@H]1CC=C(C)C [Example 71, 1-(((3R,4S,5S,6R)-5-methoxy-4-((2R,3R)-2-methyl-3-(3-methylbut-2-enyl)oxiran-2-yl)-1-oxaspiro[2.5]octan-6-yloxy)carbonyl)azetidin-3-yl morpholine-4-carboxylate formate] | 10.3 | 8.9 | 10.3
CO[C@@H]1[C@H](OC(=O)N2CC(OC(=O)N3CCN(CC(F)F)CC3)C2)CC[C@]2(CO2)[C@H]1[C@@]1(C)O[C@@H]1CC=C(C)C [Example 80, 1-(((3R,4S,5S,6R)-5-methoxy-4-((2R,3R)-2-methyl-3-(3-methylbut-2-enyl)oxiran-2-yl)-1-oxaspiro[2.5]octan-6-yloxy)carbonyl)azetidin-3-yl 4-(2,2-difluoroethyl)piperazine-1-carboxylate] | 7.3 | 16.5 | 
CO[C@@H]1[C@H](OC(=O)N2CC(CCC3CCN(CC(F)F)CC3)C2)CC[C@]2(CO2)[C@H]1[C@@]1(C)O[C@@H]1CC=C(C)C [Example 91, (3R,4S,5S,6R)-5-methoxy-4-((2R,3R)-2-methyl-3-(3-methylbut-2-enyl)oxiran-2-yl)-1-oxaspiro[2.5]octan-6-yl 3-(2-(1-(2,2-difluoroethyl)piperidin-4-yl)ethyl)azetidine-1-carboxylate formate] | 17.2 | 29.7 | 
CO[C@@H]1[C@H](OC(=O)N2CC(CN3CCOCC3)C2)CC[C@]2(CO2)[C@H]1[C@@]1(C)O[C@@H]1CC=C(C)C [Example 95, (3R,4S,5S,6R)-5-methoxy-4-((2R,3R)-2-methyl-3-(3-methylbut-2-enyl)oxiran-2-yl)-1-oxaspiro[2.5]octan-6-yl 3-(morpholinomethyl)azetidine-1-carboxylate] | 3 | 14.7 | 
CO[C@@H]1[C@H](OC(=O)N2CC(Nc3ccccn3)C2)CC[C@]2(CO2)[C@H]1[C@@]1(C)O[C@@H]1CC=C(C)C [Example 98, (3R,4S,5S,6R)-5-methoxy-4-((2R,3R)-2-methyl-3-(3-methylbut-2-enyl)oxiran-2-yl)-1-oxaspiro[2.5]octan-6-yl 3-(pyridin-2-ylamino)azetidine-1-carboxylate] | 1.2 | 12.6 | 
CO[C@@H]1[C@H](OC(=O)N2CC(Cc3ccccn3)C2)CC[C@]2(CO2)[C@H]1[C@@]1(C)O[C@@H]1CC=C(C)C [Example 100, (3R,4S,5S,6R)-5-methoxy-4-((2R,3R)-2-methyl-3-(3-methylbut-2-en-1-yl)oxiran-2-yl)-1-oxaspiro[2.5]octan-6-yl 3-(pyridin-2-ylmethyl)azetidine-1-carboxylate] | 5.5 | 9.8 | 
